Holding throughout (assay type): in vivo, A/J mice
One series has as its system exon 2 of Kras. In words: Maximum depth sequencing (MDS) of Kras exon 2 from tissues of mice after urethane exposure. Here is the method:
(§1) Urethane treatment. 6-8-week-old male and female A/J mice (JAX Stock #000646) were intraperitoneally injected daily for three days with either urethane (Sigma U2500) dissolved in PBS (1 g·kg^−1) or the vehicle PBS alone. Mice were humanely euthanized 1, 2, 3, or 4 weeks after the last injection and the lung, liver, and pancreas collected for the extraction of genomic DNA. All mouse care and experiments were performed in accordance with protocols approved by the IACUC of Duke University.
(§2) Isolation of genomic DNA. MEF cells were resuspended in lysis buffer (100 mM NaCl, 10 mM Tris pH 7.6, 25 mM EDTA pH 8.0, and 0.5% SDS in H2O, supplemented with 20 μg·ml^−1 RNase A (Sigma)). Lung, pancreas, and liver (right lobe) from A/J mice (JAX Stock #000646) were cut into fine pieces and similarly resuspended in lysis buffer. Samples were incubated at 37° C. for 1 hour. 2 μl of 800 U·ml^−1 proteinase K (NEB) was then added to each sample, the samples were vortexed, and then incubated at 55° C. overnight. Genomic DNA was isolated by phenol/chloroform extraction followed by ethanol precipitation using standard procedures and quantified using Qubit fluorometer.
Maximum depth sequencing (MDS). The MDS assay^13 was adapted for mammalian Ras genes as follows. 20-50 μg of genomic DNA was incubated with StuI (NEB) for analysis of the transcribed strand of Kras exon 1, EcoRV (NEB) and EcoRI (NEB) for analysis of the non-transcribed strand of Kras exon 1, XmnI (NEB) for analysis of the non-transcribed strand of Kras exon 2, and PleI (NEB) for analysis of the transcribed strand of Kras exon 2, or HphI (NEB) for the analysis of the non-transcribed strand of Hras exon 2. Reaction conditions were 5 units of the indicated restriction enzyme and per 1 μg DNA per 20 μl reaction (e.g., 20 μg genomic DNA, 5 μl enzyme (20 units/μl), and 40 μl 10×buffer in 400 μl reaction). Digested genomic DNA was column purified using QIAquick PCR Purification Kit following the manufacturer's protocol (Qiagen) and resuspended in ddH2O (35 μl H2O per 10 μg DNA). The barcode and adaptor were added to the target DNA by incubating purified DNA with the appropriate barcode primer (see below) for one cycle of PCR. PCR reactions were comprised of 10 μg DNA, 2.5 μl of 10 μM barcode primer, 4 μl of 2.5 mM dNTP, 10 μl of 5×buffer (NEB), and 0.5 μl Q5® Hot Start High-Fidelity DNA Polymerase (NEB) in a total volume of 50 μl. The number of PCR reactions was scaled according to the amount of DNA. PCR conditions were 98° C. for 1 minute, barcode primer annealing temperate (see below) for 15 seconds, and 72° C. for 1 minute. […] The concentration of purified product was measured with SimpliNano spectrophotometer (GE Healthcare Life Sciences). […]

The test system of the next series is exon 1 of Kras. In words: MDS of Kras exon 1 from lungs of mice after urethane exposure. Here is the method: as §1, §2
(§3) Maximum depth sequencing (MDS). The MDS assay^13 was adapted for mammalian Ras genes as follows. […] The concentration of purified product was measured with SimpliNano spectrophotometer (GE Healthcare Life Sciences). […]

A further series relates to exon 2 of Hras. In words: MDS of Hras exon 2 from lungs of mice after urethane exposure. Here is the method: as §1, §2, §3
A further series relates to Kras Q61L. In words: Droplet digital PCR of Kras Q61L in lungs of mice after urethane exposure. Conditions: 4 weeks post urethane exposure. Here is the method:
as §1
Droplet digital PCR (ddPCR). ddPCR was performed using the QX200 AutoDG Droplet Digital PCR System (Bio-Rad) following the manufacturer's protocol in a 22 μl ddPCR reaction containing 11 μl of 2×ddPCR SuperMix for probes (no dUTP) (Bio-Rad), 66 ng template DNA, 450 nM forward and reverse primers, and 250 nM FAM- and HEX-labelled probes. The primer and probe oligonucleotides were synthesized (IDT) based on sequences previously described^76 with minor modifications. The sequences for the primers are: Kras_Q61_For: 5′-[…]-3′ (SEQ ID NO: 205); and Kras_Q61_Rev: 5′-[…]-3′ (SEQ ID NO: 206). […] Plates were read on a QX200 droplet reader (Bio-Rad) and analyzed with QuantaSoft™ Analysis Pro software (version 1.0.596) (Bio-Rad) to assess the number of droplets positive for mutant DNA, wild-type DNA, both, or neither. […]

In the case of `CCOC(N)=O` [urethane, ethyl carbamate], the “strand bias of mutagenesis” value in the series with exon 2 of Kras (lung, both strands sequenced in two exons of Kras) is “bias for the non-transcribed strand”. For the same compound, the “most prominent substitution detected by MDS” value in the series on exon 2 of Kras (lungs, Kras exon 2, all time points, urethane but not PBS) was “A>T transversion within the context of a 5′ C and 3′ any nucleotide”. Further, the “oncogenic mutation at codon Q61 of Kras detected by MDS” value with exon 2 of Kras (lungs, non-transcribed strand of exon 2, 1-4 weeks after three daily i.p. injections, vs PBS) is reported as “oncogenic L (and to a lesser extent R) mutation at codon Q61 preferentially in the urethane, but not PBS cohort of mice, as early as 1 week after exposure”. In the series with exon 2 of Kras (non-transcribed strand of exon 2 of Kras, 1 and 4 weeks after urethane exposure), the “CAN→CTN transversions in liver and pancreas in comparison with the lung” value was “significantly fewer CAN→CTN transversions were recovered in the liver and pancreas”. Further, the “oncogenic mutations in codon 12 or 13 of Kras” value was “oncogenic mutations were rarely recovered in either codon 12 or 13” in the series on exon 1 of Kras (1 week after urethane exposure); “some G12 and G13 mutations were detected at a low frequency” with exon 1 of Kras (4 weeks after urethane exposure). For the same compound, the “expansion of oncogenic mutations in Hras over time” value with exon 2 of Hras (4 weeks vs 1 week) is recorded as “did not expand appreciably over time”. In addition, the “mutations in exon 2 of Hras” value in the series with exon 2 of Hras (non-transcribed strand, 1 and 4 weeks after exposure) was “high prevalence of A>T followed by A>G mutations”. In addition, the “Q61L mutation frequency by droplet digital PCR” value in the series on Kras Q61L was “frequency similar to that determined by MDS”.

For the origin of these results see patent US20240141440A1, “METHODS FOR DETECTING ONCOGENIC KRAS MUTATIONS” (Duke University, priority 2022, published 2024).
